Laboratory results as given in patent publication US9023789B2, “Amylin analogs and pharmaceutical compositions thereof” (Novo Nordisk A/S, priority 2012, dated 2015).
Numbered stars: 1 amine (or outer) side, 2 acyl side, 3 side chain; on linkers, the order of the positions; unused ones are H or OH. Bridge positions count the residues as written; N and C are the ends. Side chains are listed from the residue outwards. Peptide text beside a SMILES is read from it. * marks the point of attachment. C20 diacid = O=C(O)CCCCCCCCCCCCCCCCCCC(=O)*; γGlu = O=C(O)[C@H](CCC(=O)[*:2])N[*:1]

What was measured:
[1] = biological target: T1, human amylin receptor (membranes from Amylin 3(a)/CRE-luc cells) (Homo sapiens, UniProt O60896+P30988); assay: ASSAY (V) binding to the human amylin receptor (SPA, 125I-rat amylin); conditions: for IC50: Table 4, read-out: hAmylin-R bind IC50;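 on all read-outs here: competition binding of cell membranes (35 ng/µL) mixed with SPA beads in 384-well plates at 40 µL total volume, read by scintillation counting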
T1 construct: expressed in transfected cells
T1 sequence (P30988 25-474): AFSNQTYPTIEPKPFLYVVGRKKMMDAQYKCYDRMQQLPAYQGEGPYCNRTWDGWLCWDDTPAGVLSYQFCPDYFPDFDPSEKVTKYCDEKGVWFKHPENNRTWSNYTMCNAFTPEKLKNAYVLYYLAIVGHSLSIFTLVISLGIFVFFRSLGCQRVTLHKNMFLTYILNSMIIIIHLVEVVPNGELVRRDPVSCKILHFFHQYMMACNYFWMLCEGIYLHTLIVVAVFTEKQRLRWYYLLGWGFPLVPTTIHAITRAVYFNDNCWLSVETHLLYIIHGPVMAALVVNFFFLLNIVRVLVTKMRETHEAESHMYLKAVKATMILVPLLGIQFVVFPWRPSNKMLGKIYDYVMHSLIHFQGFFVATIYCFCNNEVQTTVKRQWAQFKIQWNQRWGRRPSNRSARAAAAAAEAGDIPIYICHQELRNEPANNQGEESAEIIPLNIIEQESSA
T1 sequence (O60896 24-148 partner): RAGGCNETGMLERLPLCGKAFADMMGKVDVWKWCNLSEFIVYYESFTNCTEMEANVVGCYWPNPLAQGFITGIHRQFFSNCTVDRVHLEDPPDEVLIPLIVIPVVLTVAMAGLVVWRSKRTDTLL

[2] = biological target: T2, human calcitonin (a) receptor in BHK570 cells (Homo sapiens, UniProt P30988); assay: ASSAY (II)a functional assay, human calcitonin receptor (CRE luciferase); assay type: cell-based; conditions: read-out: hCTR funct. EC50
T2 construct: expressed in transfected cells
T2 sequence (P30988 25-474): T1 sequence (P30988 25-474)
Outline: (§1)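 BHK CRE-luc cells, calcitonin (a) receptor ± RAMP-3 (amylin 3(a)); overnight seeding, 37° C/5% CO2. 3 h ligand exposure, DMEM/10% FBS/10 mM Hepes pH 7.4. LucLite 30 min RT; luminescence (SPC).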

[3] = biological target: T3, rat calcitonin receptor (Rattus norvegicus, UniProt P32214); assay: ASSAY (VIII) binding to the rat calcitonin receptor; conditions: Table 7, read-out: rCTR bind IC50
T3 construct: expressed in transfected cells; host or cells: BHK tk'ts 13 (transient, FuGENE 6), membranes
T3 sequence (P32214 25-479 isoform P32214-2 limits assumed): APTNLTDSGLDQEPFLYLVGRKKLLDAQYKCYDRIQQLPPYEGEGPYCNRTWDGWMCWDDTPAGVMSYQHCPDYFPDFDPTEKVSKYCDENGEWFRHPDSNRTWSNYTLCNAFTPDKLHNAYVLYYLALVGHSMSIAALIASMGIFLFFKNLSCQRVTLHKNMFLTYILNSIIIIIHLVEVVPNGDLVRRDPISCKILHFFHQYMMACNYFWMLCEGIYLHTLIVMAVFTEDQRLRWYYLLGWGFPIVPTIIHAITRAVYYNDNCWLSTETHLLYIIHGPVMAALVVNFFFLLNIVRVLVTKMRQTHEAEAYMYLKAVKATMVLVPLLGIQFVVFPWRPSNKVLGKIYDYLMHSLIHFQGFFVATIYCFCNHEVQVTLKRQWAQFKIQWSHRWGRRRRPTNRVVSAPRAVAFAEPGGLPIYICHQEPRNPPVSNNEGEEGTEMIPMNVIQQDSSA
Outline: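 Membranes were prepared from BHK tk′ts 13 cells transiently transfected with rat calcitonin receptor. Cells were grown in DMEM with 10% FBS and harvested approximately 48 hours after transfection.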

[4] = biological target: T4, human calcitonin receptor (Homo sapiens, UniProt P30988); assay: ASSAY (VII) binding to the human calcitonin receptor (SPA, 125I-Calcitonin); conditions: read-out: hCTR bind IC50;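 further: cell membranes (35 ng/µL) combined with SPA beads in 40 µL of pH 7.4 Hepes buffer, 384-well format, signal counted on a TopCounter instrument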
T4 construct: expressed in transfected cells
T4 sequence (P30988 25-474): T1 sequence (P30988 25-474)

[5] = ASSAY (X) pK, determination of T½ in rat; assay type: in vivo; conditions: male, Sprague Dawley, plasma, iv, 20 nmol/kg
[6] = biological target: T5, rat amylin receptor (rat calcitonin receptor + rat RAMP 3) (Rattus norvegicus, UniProt P32214+Q9JJ73); assay: ASSAY (VI) binding to the rat amylin receptor; conditions: for IC50: binding to rat amylin receptor, read-out: rAmylin-R bind IC50
T5 construct: expressed in transfected cells; host or cells: BHK tk'ts 13 (transient, FuGENE 6), membranes
T5 sequence (P32214 25-479 isoform P32214-2 limits assumed): T3 sequence (P32214 25-479 isoform P32214-2 limits assumed)
T5 sequence (Q9JJ73 23-147 partner): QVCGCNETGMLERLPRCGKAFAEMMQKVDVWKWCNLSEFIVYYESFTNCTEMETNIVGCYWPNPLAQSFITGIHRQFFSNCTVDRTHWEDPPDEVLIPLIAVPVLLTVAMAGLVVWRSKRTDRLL
Outline: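 This assay measured binding to the rat amylin receptor. BHK tk′ts 13 cells were transiently transfected with the rat calcitonin receptor using FuGENE® 6 (Roche), following the manufacturer's recommendations. About 48 hours after transfection, the cells were harvested and membranes were prepared from them for the binding determination.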

[7] = biological target: T6, human amylin 3(a) receptor (human calcitonin receptor + RAMP-3) in BHK570 cells (Homo sapiens, UniProt O60896+P30988); assay: ASSAY (II)a functional assay, human amylin receptor (CRE luciferase); assay type: cell-based; conditions: for EC50: human amylin receptor functional potency, assay (II), read-out: hAmylin-R funct. EC50
T6 construct: expressed in transfected cells
Outline: as §1

[8] = Table 5, selectivity, hCTR bind IC50 / hAmylin-R bind IC50
[9] = Table 5a, selectivity, hCTR bind IC50 / hAmylin-R bind IC50
[10] = Table 5b, selectivity, hCTR bind IC50 / hAmylin-R bind IC50
[11] = Table 5c, selectivity, hCTR bind IC50 / hAmylin-R bind IC50
[12] = Table 7, human binding selectivity, included for comparison
[13] = Table 7a (preferred compounds), human binding selectivity, included for comparison
[14] = ratio of human calcitonin receptor binding IC50 to human amylin receptor binding IC50
[15] = Table 7, rat binding selectivity, rCTR IC50 / rAmylin-R IC50
[16] = Table 7a (preferred compounds), rat binding selectivity, rCTR IC50 / rAmylin-R IC50
[17] = ratio of rCTR bind IC50 to rAmylin-R bind IC50
[18] = hCTR funct. EC50 divided by hAmylin-R funct. EC50
[19] = hCTR funct. EC50 over hAmylin-R funct. EC50
[20] = human functional selectivity: hCTR funct. EC50 / hAmylin-R funct. EC50

SMILES	IC50 [1]	Ratio hCT/hAmylin binding [1, 8]	Ratio hCT/hAmylin binding [1, 9]	Ratio hCT/hAmylin binding [1, 10]	Ratio hCT/hAmylin binding [1, 11]	Ratio hCT/hAmylin binding [1, 12]	Ratio hCT/hAmylin binding [1, 13]	Ratio hCT/hAmylin binding [1, 14]	EC50 [2]	IC50 [3]	IC50 [4]	half-life [5]	IC50 ([6]; Table 7)	Ratio rCT/rAmylin binding [6, 15]	Ratio rCT/rAmylin binding [6, 16]	Ratio rCT/rAmylin binding [6, 17]	Ratio hCT/hAmylin funct. [7, 18]	Ratio hCT/hAmylin funct. [7, 19]	EC50 [7]	Ratio hCT/hAmylin funct. [7, 20]
CC[C@H](C)[C@H](NC(=O)[C@H](C)NC(=O)CNC(=O)[C@H](Cc1ccccc1)NC(=O)[C@H](CC(N)=O)NC(=O)[C@@H]1CCCN1C(=O)[C@H](CO)NC(=O)[C@H](CO)NC(=O)[C@H](Cc1c[nH]cn1)NC(=O)[C@H](CCCNC(=N)N)NC(=O)[C@H](CC(C)C)NC(=O)[C@H](Cc1ccccc1)NC(=O)[C@H](CCCNC(=N)N)NC(=O)[C@H](C)NC(=O)[C@H](CC(C)C)NC(=O)[C@H](CCCNC(=N)N)NC(=O)[C@H](CCC(N)=O)NC(=O)[C@@H](NC(=O)[C@H](C)NC(=O)[C@@H]1CSSC[C@H](NC(=O)[C@@H](N)CCCCNC(=O)CC[C@H](NC(=O)CCCCCCCCCCCCCCCCCCC(=O)O)C(=O)O)C(=O)N[C@@H](CC(N)=O)C(=O)N[C@@H]([C@@H](C)O)C(=O)N[C@@H](C)C(=O)N[C@@H]([C@@H](C)O)C(=O)N1)[C@@H](C)O)C(=O)N1CCC[C@H]1C(=O)N[C@@H](CO)C(=O)N[C@@H](CO)C(=O)N[C@H](C(=O)N[C@@H](CC(N)=O)C(=O)N[C@H](C(=O)NCC(=O)N1CCC[C@H]1C(=O)N[C@@H](CC(N)=O)C(=O)N[C@H](C(=O)N[C@@H](Cc1ccc(O)cc1)C(N)=O)[C@@H](C)O)C(C)C)[C@@H](C)O [Example 65] (H-K([γGlu-C20 diacid])CNTATCATQRLARFLRHSSPNFGAIPSSTNVGPNTY-NH2; disulfide 2-7 (inferred); N-terminus assumed)	0.649 nM	82.4	82.4	82.4	82.4	82.4	82.4	82.4	9.33 nM	108 nM	53.5 nM	3 h	1.16 nM	93.2	93.2	93.2	38.6	38.6	0.242 nM	38.6
CC[C@H](C)[C@H](NC(=O)[C@H](C)NC(=O)CNC(=O)[C@H](Cc1ccccc1)NC(=O)[C@H](CC(N)=O)NC(=O)[C@@H]1CCCN1C(=O)[C@H](CO)NC(=O)[C@H](CO)NC(=O)[C@H](Cc1c[nH]cn1)NC(=O)[C@H](CCCNC(=N)N)NC(=O)[C@H](CC(C)C)NC(=O)[C@H](Cc1ccccc1)NC(=O)[C@H](CC(N)=O)NC(=O)[C@H](C)NC(=O)[C@H](CC(C)C)NC(=O)[C@H](CCCNC(=N)N)NC(=O)[C@H](CCC(N)=O)NC(=O)[C@@H](NC(=O)[C@H](C)NC(=O)[C@@H]1CSSC[C@H](NC(=O)[C@@H](N)CCCCNC(=O)CC[C@H](NC(=O)CC[C@H](NC(=O)CCCCCCCCCCCCCCCCCCC(=O)O)C(=O)O)C(=O)O)C(=O)N[C@@H](CC(N)=O)C(=O)N[C@@H]([C@@H](C)O)C(=O)N[C@@H](C)C(=O)N[C@@H]([C@@H](C)O)C(=O)N1)[C@@H](C)O)C(=O)N1CCC[C@H]1C(=O)N[C@@H](CO)C(=O)N[C@@H](CO)C(=O)N[C@H](C(=O)N[C@@H](CC(N)=O)C(=O)N[C@H](C(=O)NCC(=O)N[C@@H](Cc1c[nH]cn1)C(=O)N[C@@H](CC(N)=O)C(=O)N[C@H](C(=O)N[C@@H](Cc1ccc(O)cc1)C(N)=O)[C@@H](C)O)C(C)C)[C@@H](C)O [Example 86] (H-K([γGlu-γGlu-C20 diacid])CNTATCATQRLANFLRHSSPNFGAIPSSTNVGHNTY-NH2; disulfide 2-7)	0.833 nM	159.3	159.3	159.3	159.3	159.3	159.3	159.3	19.2 nM	352 nM	133 nM	20 h	2.8 nM	125.7	125.7	125.7	64.4	64.4	0.298 nM	64.4
CC[C@H](C)[C@H](NC(=O)[C@H](C)NC(=O)CNC(=O)[C@H](Cc1ccccc1)NC(=O)[C@H](CC(N)=O)NC(=O)[C@@H]1CCCN1C(=O)[C@H](CO)NC(=O)[C@H](CO)NC(=O)[C@H](Cc1c[nH]cn1)NC(=O)[C@H](CCCNC(=N)N)NC(=O)[C@H](CC(C)C)NC(=O)[C@H](Cc1ccccc1)NC(=O)[C@H](CCC(=O)O)NC(=O)[C@H](C)NC(=O)[C@H](CC(C)C)NC(=O)[C@H](CCCNC(=N)N)NC(=O)[C@H](CCC(N)=O)NC(=O)[C@@H](NC(=O)[C@H](C)NC(=O)[C@@H]1CSSC[C@H](NC(=O)[C@@H](N)CCCCNC(=O)CC[C@H](NC(=O)CCCCCCCCCCCCCCCCCCC(=O)O)C(=O)O)C(=O)N[C@@H](CC(N)=O)C(=O)N[C@@H]([C@@H](C)O)C(=O)N[C@@H](C)C(=O)N[C@@H]([C@@H](C)O)C(=O)N1)[C@@H](C)O)C(=O)N1CCC[C@H]1C(=O)N[C@@H](CO)C(=O)N[C@@H](CO)C(=O)N[C@H](C(=O)N[C@@H](CC(N)=O)C(=O)N[C@H](C(=O)NCC(=O)N1CCC[C@H]1C(=O)N[C@@H](CCC(=O)O)C(=O)N[C@H](C(=O)N[C@@H](Cc1ccc(O)cc1)C(N)=O)[C@@H](C)O)C(C)C)[C@@H](C)O [Example 109] (H-K([γGlu-C20 diacid])CNTATCATQRLAEFLRHSSPNFGAIPSSTNVGPETY-NH2; disulfide 2-7 (inferred); N-terminus assumed)	–	13.3	13.3	13.3	13.3	13.3	13.3	13.3	–	10.4 nM	–	17 h	0.164 nM	63.2	63.2	63.2	5.2	5.2	–	5.2
